Data published in patent US20090264401A1, “SUBSTITUTED PYRIMIDIN-5-CARBOXAMIDES 281” (AstraZeneca AB, priority 2008, published 2009).

Target: T1, human 11βHSD1 enzyme (Homo sapiens, UniProt P28845)
T1 construct: baculovirus expressed N terminal 6-His tagged full length human 11βHSD1 enzyme; 6-His (N); made in house
Experiment: 11βHSD1 cortisone to cortisol conversion, competitive HTRF assay
Type: biochemical
Conditions: for inhibition at 30 µM: human 11-βHSD, test concentration of 30 μM of compound; for IC50: recombinant N terminal 6-His tagged full length human 11βHSD1, cortisone 160 nM, 25 minutes at 37° C.
Summary of the method: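 Enzyme was baculovirus-expressed, N-terminal 6-His-tagged full-length human 11βHSD1, purified on a copper chelate column. Compounds were added in buffer containing 1% DMSO at 10-fold final concentration.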

T1 sequence (P28845 whole entry): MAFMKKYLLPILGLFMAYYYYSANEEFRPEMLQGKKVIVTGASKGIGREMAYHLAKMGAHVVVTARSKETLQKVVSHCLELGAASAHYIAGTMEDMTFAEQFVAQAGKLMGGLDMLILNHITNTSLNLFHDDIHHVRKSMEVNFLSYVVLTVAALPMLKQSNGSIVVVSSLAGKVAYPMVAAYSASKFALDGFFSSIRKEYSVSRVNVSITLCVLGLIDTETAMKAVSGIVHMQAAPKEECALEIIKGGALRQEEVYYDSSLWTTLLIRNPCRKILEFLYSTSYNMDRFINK

SMILES | inhibition at 30 µM | IC50
CN1CCN(CCNc2ncc(C(=O)N[C@H]3C4CC5CC3C[C@@](O)(C5)C4)c(C3CC3)n2)CC1 [Example 74, 4-cyclopropyl-N-[(2r,5s)-5-hydroxyadamantan-2-yl]-2-{[2-(4-methylpiperazin-1-yl)ethyl]amino}pyrimidine-5-carboxamide] | 88.5% | –
CN(C)c1ncc(C(=O)N[C@H]2C3CC4CC2C[C@@](O)(C4)C3)c(C2CC2)n1 [Example 61, 4-cyclopropyl-2-(dimethylamino)-N-[(2r,5s)-5-hydroxyadamantan-2-yl]pyrimidine-5-carboxamide] | 105% | –
CCOc1nc(NC2COC2)ncc1C(=O)N[C@H]1C2CC3CC1C[C@@](O)(C3)C2 [Example 211, 4-ethoxy-N-[(2r,5s)-5-hydroxytricyclo[3.3.1.13,7]dec-2-yl]-2-(oxetan-3-ylamino)pyrimidine-5-carboxamide] | 98.4% | –
CCCSc1nc(N2CCN(C(=O)N(C)C)CC2)ncc1C(=O)NC1C2CC3CC(C2)CC1C3 (centres unmarked) [Example 29, N-(2-adamantyl)-2-[4-(dimethylcarbamoyl)piperazin-1-yl]-4-propylsulfanyl-pyrimidine-5-carboxamide] | 100% | 13 nM
O=C(N[C@H]1C2CC3CC1C[C@@](O)(C3)C2)c1cnc(N2CCSCC2)nc1C1CCCCC1 [Example 196, 4-Cyclohexyl-N-[(2r,5 s)-5-hydroxyadamantan-2-yl]-2-thiomorpholin-4-ylpyrimidine-5-carboxamide] | 99.8% | –
COCCN1CCN(c2ncc(C(=O)N[C@H]3C4CC5CC3C[C@@](O)(C5)C4)c(C3CCC3)n2)CC1 [Example 87, 4-cyclobutyl-N-[(2r,5s)-5-hydroxyadamantan-2-yl]-2-[4-(2-methoxyethyl)piperazin-1-yl]pyrimidine-5-carboxamide] | 95.7% | –
O=C(N[C@H]1C2CC3CC1C[C@@](O)(C3)C2)c1cnc(NC2CC2)nc1C1CC(F)(F)C1 [Example 155, 2-(cyclopropylamino)-4-(3,3-difluorocyclobutyl)-N-[(2r,5s)-5-hydroxyadamantan-2-yl]pyrimidine-5-carboxamide] | 92.6% | –
Nc1ncc(C(=O)N[C@H]2C3CC4CC2C[C@@](O)(C4)C3)c(C2CC2)n1 [Example 49, 2-Amino-4-cyclopropyl-N-[(2r,5s)-5-hydroxyadamantan-2-yl]pyrimidine-5-carboxamide] | 99.3% | –
COc1nc(NC2CCC2)ncc1C(=O)N[C@H]1C2CC3CC1C[C@@](O)(C3)C2 [Example 207, 2-(cyclobutylamino)-N-[(2r,5s)-5-hydroxytricyclo[3.3.1.13,7]dec-2-yl]-4-methoxypyrimidine-5-carboxamide] | 93% | –
O=C(N[C@H]1C2CC3CC1C[C@@](O)(C3)C2)c1cnc(N2CC3CC2CS3)nc1C1CC1 [Example 46, 4-Cyclopropyl-N-[(2r,5s)-5-hydroxyadamantan-2-yl]-2-(3-thia-6-azabicyclo[2.2.1]heptan-6-yl)pyrimidine-5-carboxamide] | 104% | –
CC(C)(C)c1ncncc1C(=O)N[C@H]1C2CC3CC1C[C@@](O)(C3)C2 [Example 7] | 88.3% | –
C[C@@H]1CN(CCNc2ncc(C(=O)N[C@H]3C4CC5CC3C[C@@](O)(C5)C4)c(C3CCCC3)n2)C[C@H](C)O1 [Example 148, 4-cyclopentyl-2-({2-[(2R,6S)-2,6-dimethylmorpholin-4-yl]ethyl}amino)-N-[(2r,5s)-5-hydroxytricyclo[3.3.1.13,7]dec-2-yl]pyrimidine-5-carboxamide] | 102% | –
O=C(N[C@H]1C2CC3CC1C[C@@](O)(C3)C2)c1cnc(NC2CCC2)nc1C1CCCO1 (some centres unmarked) [Example 162, 2-(cyclobutylamino)-N-[(2r,5s)-5-hydroxyadamantan-2-yl]-4-(oxolan-2-yl)pyrimidine-5-carboxamide] | 97.7% | –
O=C(c1cnc(N2CCOCC2)nc1C1CC1)N1CCC(c2cccnc2)C1 (centres unmarked) [Example 79, (4-Cyclopropyl-2-morpholinopyrimidin-5-yl)(3-(pyridin-3-yl)pyrrolidin-1-yl)methanone] | 89.7% | –
COc1nc(OC2CCC2)ncc1C(=O)N[C@H]1C2CC3CC1C[C@@](O)(C3)C2 [Example 208, 2-(cyclobutyloxy)-N-[(2r,5s)-5-hydroxytricyclo[3.3.1.13,7]dec-2-yl]-4-methoxypyrimidine-5-carboxamide] | 102% | –
O=C(NC1C2CC3CC(C2)CC1C3)c1cnc(N2CCOCC2)nc1C1CC1 (centres unmarked) [Example 13, N-(2-adamantyl)-4-cyclopropyl-2-morpholino-pyrimidine-5-carboxamide] | 112% | 14 nM
O=C(N[C@H]1C2CC3CC1C[C@@](O)(C3)C2)c1cnc(OC2CCC2)nc1C1CCC1 [Example 108, 4-cyclobutyl-2-(cyclobutyloxy)-N-[(2r,5s)-5-hydroxyadamantan-2-yl]pyrimidine-5-carboxamide] | 96% | –

SMILES | inhibition at 30 µM | IC50
O=C(N[C@H]1C2CC3CC1C[C@@](O)(C3)C2)c1cnc(N2CCS(=O)(=O)CC2)nc1C1CCC1 [Example 83, 4-Cyclobutyl-2-(1,1-dioxo-1,4-thiazinan-4-yl)-N-[(2r,5s)-5-hydroxyadamantan-2-yl]pyrimidine-5-carboxamide] | 103% | –
O=C(N[C@H]1C2CC3CC1C[C@@](O)(C3)C2)c1cncnc1C1CC1 [Example 3, 4-cyclopropyl-N-[(2r,5s)-5-hydroxyadamantan-2-yl]pyrimidine-5-carboxamide] | 106% | 370 nM
CCCSc1ncc(C(=O)N[C@H]2C3CC4CC2C[C@@](O)(C4)C3)c(SCCC)n1 [Example 16, N-[(2r,5s)-5-hydroxyadamantan-2-yl]-2,4-bis(propylsulfanyl)pyrimidine-5-carboxamide] | 95.8% | 2 nM
CC(C)Oc1nc(OC2CCC2)ncc1C(=O)N[C@H]1C2CC3CC1C[C@@](O)(C3)C2 [Example 218, 2-(cyclobutyloxy)-N-[(2r,5s)-5-hydroxytricyclo[3.3.1.13,7]dec-2-yl]-4-(1-methylethoxy)pyrimidine-5-carboxamide] | 96% | –
CSc1ncc(C(=O)N[C@H]2C3CC4CC2C[C@@](O)(C4)C3)c([C@@H]2CCCO2)n1 [Example 177, N-[(2r,5s)-5-hydroxyadamantan-2-yl]-2-methylsulfanyl-4-[(2S)-oxolan-2-yl]pyrimidine-5-carboxamide] | 95.8% | –
O=C(N[C@H]1C2CC3CC1C[C@@](O)(C3)C2)c1cnc(NC2CCOCC2)nc1C1CCC1 [Example 96, 4-cyclobutyl-N-[(2r,5s)-5-hydroxyadamantan-2-yl]-2-(tetrahydro-2H-pyran-4-ylamino)pyrimidine-5-carboxamide] | 97.4% | –
CC(C)Oc1ncc(C(=O)N[C@H]2C3CC4CC2C[C@@](O)(C4)C3)c(C2CC2)n1 [Example 76, 4-cyclopropyl-N-[(2r,5s)-5-hydroxyadamantan-2-yl]-2-isopropoxypyrimidine-5-carboxamide] | 96.1% | –
O=C(N[C@H]1C2CC3CC1C[C@@](O)(C3)C2)c1cnc(NC2CC2)nc1[C@H]1CCCO1 [Example 170, 2-(cyclopropylamino)-N-[(2r,5s)-5-hydroxyadamantan-2-yl]-4-[(2R)-oxolan-2-yl]pyrimidine-5-carboxamide] | 94.4% | –
O=C(N[C@H]1C2CC3CC1C[C@@](O)(C3)C2)c1cnc(NC2CC2)nc1[C@@H]1CCCO1 [Example 180, 2-(cyclopropylamino)-N-[(2r,5s)-5-hydroxyadamantan-2-yl]-4-[(2S)-oxolan-2-yl]pyrimidine-5-carboxamide] | 98.8% | –
C[C@@H]1CN(CCNc2ncc(C(=O)N[C@H]3C4CC5CC3C[C@@](O)(C5)C4)c(C3CC3)n2)C[C@H](C)O1 [Example 73, 4-cyclopropyl-2-({2-[(2R,6S)-2,6-dimethylmorpholin-4-yl]ethyl}amino)-N-[(2r,5s)-5-hydroxyadamantan-2-yl]pyrimidine-5-carboxamide] | 95.2% | –
C[C@@H]1CN(c2ncc(C(=O)N[C@H]3C4CC5CC3C[C@@](O)(C5)C4)c(C3CC3)n2)C[C@H](C)N1 [Example 62, 4-cyclopropyl-2-[(3R,5S)-3,5-dimethylpiperazin-1-yl]-N-[(2r,5s)-5-hydroxyadamantan-2-yl]pyrimidine-5-carboxamide] | 99.9% | –
O=C(N[C@H]1C2CC3CC1C[C@@](O)(C3)C2)c1cnc(OC2CCC2)nc1C1CC1 [Example 75, 2-(Cyclobutyloxy)-4-cyclopropyl-N-[(2r,5 s)-5-hydroxyadamantan-2-yl]pyrimidine-5-carboxamide] | 98.6% | –
CCOc1nc(N2C[C@@H](C)O[C@@H](C)C2)ncc1C(=O)N[C@H]1C2CC3CC1C[C@@](O)(C3)C2 [Example 209, 2-[(2S,6R)-2,6-dimethylmorpholin-4-yl]-4-ethoxy-N-[(2r,5s)-5-hydroxyadamantan-2-yl]pyrimidine-5-carboxamide] | 99.4% | –
CC(C)Nc1ncc(C(=O)N[C@H]2C3CC4CC2C[C@@](O)(C4)C3)c(C2CCCC2)n1 [Example 121, 4-cyclopentyl-N-[(2r,5s)-5-hydroxyadamantan-2-yl]-2-(propan-2-ylamino)pyrimidine-5-carboxamide] | 104% | –
CC(C)Nc1ncc(C(=O)N[C@H]2C3CC4CC2C[C@@](O)(C4)C3)c(C2CC2)n1 [Example 64, 4-cyclopropyl-N-[(2r,5s)-5-hydroxyadamantan-2-yl]-2-(isopropylamino)pyrimidine-5-carboxamide] | 95.9% | –
O=C(N[C@H]1C2CC3CC1C[C@@](O)(C3)C2)c1cnc(N2CCOC(CO)C2)nc1C1CCC1 (some centres unmarked) [Example 93, 4-cyclobutyl-N-[(2r,5s)-5-hydroxyadamantan-2-yl]-2-[2-(hydroxymethyl)morpholin-4-yl]pyrimidine-5-carboxamide] | 93.1% | –
O=C(N[C@H]1C2CC3CC1C[C@@](O)(C3)C2)c1cnc(N2CCOCC2CO)nc1C1CCC1 (some centres unmarked) [Example 90, 4-cyclobutyl-N-[(2r,5s)-5-hydroxyadamantan-2-yl]-2-[3-(hydroxymethyl)morpholin-4-yl]pyrimidine-5-carboxamide] | 100% | –
